Reference: ChEMBL document CHEMBL5729293, “Inhibitors of KEAP1-Nrf2 protein-protein interaction” (2022)

Test: Fluorescence Based Assay: The details of the KEAP1 KELCH ThermoFluor® Assay Construct are as follows: Kelch domain of human KEAP 1 (321-624 aa) was used in the assay. The protein was expressed in E. coli with 6His tag that was cleaved prior to receipt for use.ThermoFluor® experiments were carried out using instruments owned by Janssen Research and Discovery, L.L.C. through its acquisition of 3-Dimensional Pharmaceuticals, Inc. 1,8-ANS (Invitrogen) was used as a fluorescent dye. Protein (KEAP Kelch) and compound solutions were dispensed into black 384-well polypropylene PCR microplates (Abgene) and overlayed with silicone oil (1 μL, Fluka, type DC 200) to prevent evaporation.Reference wells contained KEAP Kelch without compounds, and the assay conditions were as follows: 1.1 μM (0.037mg/mL) KEAP Kelch, 80 μM 1,8-ANS, 25 mM PIPES, pH 7.0, 100 mM NaCl, 0.002% Tween-20.

CC[C@@H]1CN(Cc2cc(C(CC(=O)O)c3ccn4c(C(F)F)nnc4c3C)ccc2C)S(=O)(=O)c2cccnc2O1 (stereo partly drawn)
Kd: < 1 nM

Cc1ccc([C@H](CC(=O)O)c2ccn3c(C(F)(F)F)nnc3c2C)nc1CN1C[C@@H]2CCCCN2c2ncccc2S1(=O)=O
Kd: < 1 nM

Cc1ccc([C@H](CC(=O)O)c2ccn3c(C(F)F)nnc3c2C)cc1CN1CC2(COC2)Oc2ncccc2S1(=O)=O
Kd: < 1 nM

Cc1cc2cc([C@H](CC(=O)O)c3ccc(C)c(CN4C[C@@H]5CCCCN5c5ncccc5S4(=O)=O)c3)n(C)c2nn1
Kd: < 1 nM

Cc1ccc(C(CC(=O)O)c2ccn3c(C(F)(F)F)nnc3c2C)nc1CN1CC2(CC2)Oc2ncccc2S1(=O)=O (stereo not drawn)
Kd: < 1 nM

Cc1ccc([C@@H](CC(=O)O)c2ccn3c(C(F)F)nnc3c2C)cc1CN1CC2(COC2)Oc2ncccc2S1(=O)=O
Kd: < 1 nM

Cc1ccc([C@@H](CC(=O)O)c2ccc3c(nnn3CC3CC3)c2C)cc1CN1C[C@H]2CCCN2c2ncccc2S1(=O)=O
Kd: < 1 nM

Cc1ccc(C(CC(=O)O)c2ccn3c(C(F)F)nnc3c2C)cc1CN1C[C@]2(C)CCCN2c2ncccc2S1(=O)=O (stereo partly drawn)
Kd: < 1 nM

CC[C@@H]1CN(Cc2cc([C@@H](CC(=O)O)c3ccn4c(C(F)F)nnc4c3C)ccc2C)S(=O)(=O)c2cccnc2O1
Kd: < 1 nM

Cc1cnc2c(c1)S(=O)(=O)N(Cc1nc([C@H](CC(=O)O)c3ccn4c(C(F)(F)F)nnc4c3C)ccc1C)C[C@H]1CCCCN21
Kd: < 1 nM

Cc1ccc([C@H](CC(=O)O)c2cc(OC3CC3)c3c(c2)nnn3C)cc1CN1C[C@H]2CCCCN2c2ncccc2S1(=O)=O
Kd: < 1 nM

Cc1ccc([C@H](CC(=O)O)c2ccc3c(nnn3C3CC3)c2C)cc1CN1C[C@@H]2CCCCN2c2ncccc2S1(=O)=O
Kd: < 1 nM

Cc1cnc2c(c1)S(=O)(=O)N(Cc1nc([C@@H](CC(=O)O)c3ccn4c(C(F)(F)F)nnc4c3C)ccc1C)C[C@H]1CCCCN21
Kd: < 1 nM

Cc1ccc(C(CC(=O)O)c2cc(OC3CC3)c3c(c2)nnn3C)cc1CN1C[C@H]2CCCCN2c2ncccc2S1(=O)=O (stereo partly drawn)
Kd: < 1 nM

Cc1cnc2c(c1)S(=O)(=O)N(Cc1cc([C@@H](c3ccc4c(nnn4C4CC4)c3C)C(C)(C)C(=O)O)cnc1C)CC1(CC1)O2
Kd: < 1 nM

Cc1ccc([C@@H](c2ccn3c(C(F)(F)F)nnc3c2C)C(C)(C)C(=O)O)cc1CN1C[C@@]2(CCOC2)Oc2ncccc2S1(=O)=O
Kd: < 1 nM

Cc1cc2cc(C(CC(=O)O)c3ccc(C)c(CN4C[C@@H]5CCCCN5c5ncccc5S4(=O)=O)c3)n(C)c2nn1 (stereo partly drawn)
Kd: < 1 nM

Cc1ccc([C@H](CC(=O)O)c2ccn3c(C(F)F)nnc3c2C)cc1CN1C[C@H]2CCCN2c2ncccc2S1(=O)=O
Kd: < 1 nM

Cc1ccc([C@@H](CC(=O)O)c2ccn3c(C(F)(F)F)nnc3c2C)cc1CN1C[C@H]2CCC(F)(F)CN2c2ncccc2S1(=O)=O
Kd: < 1 nM

Cc1ccc([C@H](CC(=O)O)c2ccn3c(C(F)(F)F)nnc3c2C)cc1CN1C[C@@H]2CCC(F)(F)CN2c2ncccc2S1(=O)=O
Kd: < 1 nM

Cc1ccc([C@@H](CC(=O)O)c2ccn3c(C(F)(F)F)nnc3c2C)cc1CN1C[C@H]2CCCN2c2ncccc2S1(=O)=O
Kd: < 1 nM

Cc1ccc(C(CC(=O)O)c2ccn3c(C(F)F)nnc3c2C)cc1CN1C[C@@H]2CCCCN2c2ncccc2S1(=O)=O (stereo partly drawn)
Kd: < 1 nM

Cc1ccc([C@H](c2ccn3c(C(F)(F)F)nnc3c2C)C(C)(C)C(=O)O)cc1CN1C[C@@H]2CCCCN2c2ncc(C#N)cc2S1(=O)=O
Kd: < 1 nM

Cc1ccc([C@H](c2ccn3c(C(F)(F)F)nnc3c2C)C(C)(C)C(=O)O)cc1CN1C[C@]2(CCOC2)Oc2ncccc2S1(=O)=O
Kd: < 1 nM

Cc1cnc2c(c1)S(=O)(=O)N(Cc1cc([C@@H](c3ccn4c(C(F)(F)F)nnc4c3C)C(C)(C)C(=O)O)ccc1C)C[C@]1(CCOC1)O2
Kd: < 1 nM

Cc1ccc(C(CC(=O)O)c2ccn3c(C(F)F)nnc3c2C)cc1CN1CC2(CC2)Oc2ncccc2S1(=O)=O (stereo not drawn)
Kd: < 1 nM

Cc1ccc([C@H](CC(=O)O)c2ccn3c(C(F)(F)F)nnc3c2C)nc1CN1CC2(CC2)Oc2ncccc2S1(=O)=O
Kd: < 1 nM

Cc1ccc([C@H](CC(=O)O)c2ccn3c(C(F)F)nnc3c2C)cc1CN1C[C@]2(C)CCCN2c2ncccc2S1(=O)=O
Kd: < 1 nM

Cc1ccc([C@@H](c2ccc3c(nnn3CC3CC3)c2C)C(C)(C)C(=O)O)cc1CN1CC2(CCOCC2)Oc2ncccc2S1(=O)=O
Kd: < 1 nM

Cc1cc2cc([C@H](CC(=O)O)c3ccc(C)c(CN4C[C@H]5CCCCN5c5ncccc5S4(=O)=O)c3)n(C)c2nn1
Kd: < 1 nM

Cc1cnc2c(c1)S(=O)(=O)N(Cc1cc([C@@H](c3ccn4c(C5CC5)nnc4c3C)C(C)(C)C(=O)O)ccc1C)CC1(CC1)O2
Kd: < 1 nM

Cc1cnc2c(c1)S(=O)(=O)N(Cc1cc([C@H](c3ccn4c(C(F)(F)F)nnc4c3C)C(C)(C)C(=O)O)ccc1C)C[C@@]1(CCOC1)O2
Kd: < 1 nM

Cc1ccc([C@H](c2ccn3c(C(F)(F)F)nnc3c2C)C(C)(C)C(=O)O)cc1CN1CC(C)(C)Oc2ncccc2S1(=O)=O
Kd: < 1 nM

Cc1cc2cc([C@H](CC(=O)O)c3ccc(C)c(CN4C[C@H]5CCCN5c5ncccc5S4(=O)=O)c3)n(C)c2nn1
Kd: < 1 nM

CCn1nnc2c(C)c(C(CC(=O)O)c3ccc(C)c(CN4CC5(CCOCC5)Oc5ccc(F)cc5S4(=O)=O)n3)ccc21 (stereo not drawn)
Kd: < 1 nM

Cc1ccc([C@H](CC(=O)O)c2ccc3c(nnn3CC3CC3)c2C)cc1CN1C[C@H]2CCCN2c2ncccc2S1(=O)=O
Kd: < 1 nM

Cc1ccc(C(CC(=O)O)c2ccc3c(nnn3C3CC3)c2C)cc1CN1C[C@@H]2CCCCN2c2ncccc2S1(=O)=O (stereo partly drawn)
Kd: < 1 nM

Cc1ccc(C(CC(=O)O)c2ccn3c(C(F)F)nnc3c2C)cc1CN1CC2(COC2)Oc2ncccc2S1(=O)=O (stereo not drawn)
Kd: < 1 nM

Cc1cnc2c(c1)S(=O)(=O)N(Cc1nc(C(CC(=O)O)c3ccn4c(C(F)(F)F)nnc4c3C)ccc1C)C[C@@H]1CCCCN21 (stereo partly drawn)
Kd: < 1 nM

Cc1ccc([C@@H](CC(=O)O)c2ccn3c(C(F)(F)F)nnc3c2C)nc1CN1C[C@@H]2CCCCN2c2ncccc2S1(=O)=O
Kd: < 1 nM

Cc1ccc([C@@H](CC(=O)O)c2ccn3c(C(F)(F)F)nnc3c2C)nc1CN1CC2(CC2)Oc2ncccc2S1(=O)=O
Kd: < 1 nM

Cc1ccc(C(CC(=O)O)c2ccn3c(C(F)(F)F)nnc3c2C)nc1CN1C[C@@H]2CCCCN2c2ncccc2S1(=O)=O (stereo partly drawn)
Kd: < 1 nM

Cc1ccc([C@@H](CC(=O)O)c2ccn3c(C(F)(F)F)nnc3c2C)cc1CN1C[C@@H]2CCC(F)(F)CN2c2ncccc2S1(=O)=O
Kd: < 1 nM

CCn1nnc2c(C)c([C@H](CC(=O)O)c3ccc(C)c(CN4CC5(CCOCC5)Oc5ccc(F)cc5S4(=O)=O)n3)ccc21
Kd: < 1 nM

Cc1ccc([C@H](CC(=O)O)c2ccn3c(C(F)(F)F)nnc3c2C)cc1CN1C[C@H]2CCCN2c2ncccc2S1(=O)=O
Kd: < 1 nM

Cc1ccc([C@@H](c2ccn3c(C(F)(F)F)nnc3c2C)C(C)(C)C(=O)O)cc1CN1C[C@H]2CCCCN2c2ncc(C#N)cc2S1(=O)=O
Kd: < 1 nM

Cc1ccc(C(CC(=O)O)c2ccn3c(C(F)(F)F)nnc3c2C)nc1CN1CC2(COC2)Oc2ncccc2S1(=O)=O (stereo not drawn)
Kd: < 1 nM

Cc1cnc2c(c1)S(=O)(=O)N(Cc1nc([C@H](CC(=O)O)c3ccn4c(C(F)(F)F)nnc4c3C)ccc1C)C[C@@H]1CCCCN21
Kd: < 1 nM

Cc1ccc(C(CC(=O)O)c2ccn3c(C(F)(F)F)nnc3c2C)cc1CN1CC2CCC(F)(F)CN2c2ncccc2S1(=O)=O (stereo not drawn)
Kd: < 1 nM

Cc1ccc([C@@H](c2ccn3c(C(F)(F)F)nnc3c2C)C(C)(C)C(=O)O)cc1CN1CC2(CCOCC2)Oc2ncccc2S1(=O)=O
Kd: < 1 nM

Cc1ccc(C(CC(=O)O)c2ccc3c(nnn3CC3CC3)c2C)cc1CN1C[C@H]2CCCN2c2ncccc2S1(=O)=O (stereo partly drawn)
Kd: < 1 nM

Cc1ccc([C@@H](CC(=O)O)c2cc(OC3CC3)c3c(c2)nnn3C)cc1CN1C[C@H]2CCCCN2c2ncccc2S1(=O)=O
Kd: < 1 nM

Cc1ccc([C@@H](CC(=O)O)c2ccn3c(C(F)F)nnc3c2C)cc1CN1C[C@H]2CCCN2c2ncccc2S1(=O)=O
Kd: < 1 nM

Cc1cnc2c(c1)S(=O)(=O)N(Cc1cc(C(c3ccc4c(nnn4C4CC4)c3C)C(C)(C)C(=O)O)cnc1C)CC1(CC1)O2 (stereo not drawn)
Kd: < 1 nM

Cc1ccc([C@H](CC(=O)O)c2ccn3c(C(F)F)nnc3c2C)cc1CN1C[C@@H]2COCCN2c2ncccc2S1(=O)=O
Kd: < 1 nM

Cc1ccc(C(CC(=O)O)c2ccn3c(C(F)(F)F)nnc3c2C)nc1CN1CC2(COC2)Oc2ccccc2S1(=O)=O (stereo not drawn)
Kd: < 1 nM

Cc1ccc(C(CC(=O)O)c2ccn3c(C(F)F)nnc3c2C)cc1CN1C[C@H]2CCCN2c2ncccc2S1(=O)=O (stereo partly drawn)
Kd: < 1 nM

Cc1cnc2c(c1)S(=O)(=O)N(Cc1nc(C(CC(=O)O)c3ccn4c(C(F)(F)F)nnc4c3C)ccc1C)C[C@H]1CCCCN21 (stereo partly drawn)
Kd: < 1 nM

Cc1ccc([C@H](c2ccn3c(C(F)(F)F)nnc3c2C)C(C)(C)C(=O)O)cc1CN1CC2(CC2)Oc2nc(N[C@@H](C)CN3CCCCC3)c(C)cc2S1(=O)=O
Kd: < 1 nM

Cc1ccc([C@H](CC(=O)O)c2ccn3c(C(F)(F)F)nnc3c2C)cc1CN1CC2(CCOCC2)Oc2ncccc2S1(=O)=O
Kd: < 1 nM

Cc1ccc([C@@H](c2ccn3c(C(F)(F)F)nnc3c2C)C(C)(C)C(=O)O)cc1CN1C[C@@H]2CCCCN2c2ncc(C#N)cc2S1(=O)=O
Kd: < 1 nM

Cc1ccc([C@@H](CC(=O)O)c2ccn3c(C(F)F)nnc3c2C)cc1CN1C[C@@H]2CCCCN2c2ncccc2S1(=O)=O
Kd: < 1 nM

Cc1ccc([C@H](CC(=O)O)c2ccn3c(C(F)F)nnc3c2C)cc1CN1CC2(CC2)Oc2ncccc2S1(=O)=O
Kd: < 1 nM

Cc1ccc([C@@H](CC(=O)O)c2ccn3c(C(F)(F)F)nnc3c2C)nc1CN1CC2(COC2)Oc2ccccc2S1(=O)=O
Kd: < 1 nM

Cc1ccc([C@@H](CC(=O)O)c2ccn3c(C(F)F)nnc3c2C)cc1CN1CC2(CC2)Oc2ncccc2S1(=O)=O
Kd: < 1 nM

Cc1cnc2c(c1)S(=O)(=O)N(Cc1cc(C(c3ccn4c(C5CC5)nnc4c3C)C(C)(C)C(=O)O)ccc1C)CC1(CC1)O2 (stereo not drawn)
Kd: < 1 nM

Cc1cc2cc(C(CC(=O)O)c3ccc(C)c(CN4C[C@H]5CCCCN5c5ncccc5S4(=O)=O)c3)n(C)c2nn1 (stereo partly drawn)
Kd: < 1 nM

Cc1ccc([C@H](CC(=O)O)c2ccn3c(C(F)F)nnc3c2C)cc1CN1CC2(COC2)Oc2ccccc2S1(=O)=O
Kd: < 1 nM
